Patent US9006262B2 (priority 2011, dated 2015)

Tested on: C57BL/6 mouse line transplanted with B16-F10 melanoma cells
Conditions: in vivo

Compound: CN(C(=O)/C=C/c1ccoc1)[C@@H]1CC[C@@]2(O)[C@H]3Cc4ccc(O)c5c4[C@@]2(CCN3CC2CC2)[C@H]1O5.Cl [Compound 1, (−)-17-(cyclopropylmethyl)-3,14β-dihydroxy-4,5α-epoxy-6β-[N-methyl-trans-3-(3-furyl)acrylamido]morphinan hydrochloride]
- life-prolonging effect (survival rate / lifetime): statistically significant life-prolonging effect
- suppressive effect on body weight loss (percent change in body weight): statistically significant suppressive effect on body weight loss

Compound: CN1CC[C@]23c4c5ccc(O)c4O[C@H]2[C@@H](O)C=C[C@H]3[C@H]1C5 [morphine, Morphine]
- life-prolonging effect (survival rate / lifetime): tendency to reduce the lifetime
- suppressive effect on body weight loss (percent change in body weight): tendency of further body weight loss
